These results are taken from patent US20120021437A1, “TETRANOR-PGDM/PGJM SPECIFIC IMMUNOGENS, ANTIBODIES, TRACERS, ASSAY KITS AND METHODS FOR MAKING SAME” (Cayman Chemical Company, Incorporated, priority 2010, published 2012).

This test has as its system Tetranor-PGDM EIA Antiserum. The test is described as follows: Cross-reactivity testing of the antibody in competitive tetranor-PGDM EIA. The note with it: Specificity of the Tetranor-PGDM EIA Antiserum; Example 3 Step D2c.
Protocol: To determine cross-reactivity of an antibody, the standard curve using optimal tracer and Ab dilutions according the kit instructions was set up. Tetranor PGDM was diluted to 10 ng/mL for the first point in the standard curve and diluted 2.5-fold serially 7 times. First standard dilutions (10 μg/mL) of tetranor-PGJM, tetranor-PGEM, tetranor-PGFM, PGA2, PGD2, PGE2, PGF2α, PGJ2, 13,14-dihydro-15-keto PGD2, 13,14-dihydro-15-keto-PGE2, 13,14-dihydro-15-keto-PGF2, were prepared and 7 additional 6-fold serial dilutions were performed. IC50s of all compounds were determined and each percent cross-reactivity (% XR) values of the potentially cross-reactive compounds was determined by dividing the IC50 of tetranor-PGDM by the IC50 of the test compound and multiplying by 100.
In the case of `CCCCC[C@H](O)/C=C/[C@H]1C(=O)C[C@H](O)[C@@H]1C/C=C\CCCC(=O)O` [Prostaglandin D2], the “Cross-reactivity (% XR)” value was less than 0.01%.

`CCCCCC(=O)CC[C@H]1[C@H](O)CC(=O)[C@@H]1C/C=C\CCCC(=O)O` [13,14-dihydro-15-keto Prostaglandin E2]: the “Cross-reactivity (% XR)” value was less than 0.01%.

In the case of `O=C(O)CCCCC(=O)CC[C@@H]1[C@@H](CCC(=O)O)[C@@H](O)C[C@H]1O` [tetranor-PGFM], the “Cross-reactivity (% XR)” value is less than 0.01%.

In the case of `O=C(O)CCCCC(=O)CC[C@H]1[C@H](O)CC(=O)[C@@H]1CCC(=O)O` [tetranor-PGEM], the “Cross-reactivity (% XR)” value was found to be 0.3%.

Take `CCCCCC(=O)CC[C@H]1C(=O)C[C@H](O)[C@@H]1C/C=C\CCCC(=O)O` [13,14-dihydro-15-keto Prostaglandin D2]: the “Cross-reactivity (% XR)” value was less than 0.01%.

`CCCCC[C@H](O)/C=C/[C@H]1C=CC(=O)[C@@H]1C/C=C\CCCC(=O)O` [Prostaglandin A2]: the “Cross-reactivity (% XR)” value is given as less than 0.01%.

Take Prostaglandin F2α: the “Cross-reactivity (% XR)” value is recorded as less than 0.01%.

Take `O=C(O)CCCCC(=O)CC[C@H]1C(=O)C=C[C@@H]1CCC(=O)O` [tetranor-PGJM]: the “Cross-reactivity (% XR)” value stood at 376%.

Take `CCCCCC(=O)CC[C@@H]1[C@@H](C/C=C\CCCC(=O)O)[C@@H](O)C[C@H]1O` [13,14-dihydro-15-keto Prostaglandin F2α]: the “Cross-reactivity (% XR)” value is reported as less than 0.01%.

As to `CCCCC[C@H](O)/C=C/[C@H]1[C@H](O)CC(=O)[C@@H]1C/C=C\CCCC(=O)O` [Prostaglandin E2], the “Cross-reactivity (% XR)” value is reported as less than 0.01%.

As for `O=C(O)CCCCC(=O)CC[C@H]1C(=O)C[C@H](O)[C@@H]1CCC(=O)O` [tetranor-PGDM, 9α-hydroxy-11,15-dioxo-13,14-dihydro-2,3,4,5-tetranor-prostan-1,20-dioic acid], the “Cross-reactivity (% XR)” value stood at 100%.

Take `CCCCC[C@H](O)/C=C/[C@H]1C(=O)C=C[C@@H]1C/C=C\CCCC(=O)O` [Prostaglandin J2]: the “Cross-reactivity (% XR)” value is less than 0.01%.
